Reference: US10265297B2 (Council of Scientific & Industrial Research, priority 2016, dated 2019)
Marks after values point to notes of the source that are not given here.

Key:
[1] = tested on: ovariectomized Sprague Dawley rats; assay: Ovariectomized (OVx) rats: trabecular microarchitecture of femur and uterine weight; assay type: in vivo; details: for BV/TV / Po (tot) (Total porosity percent) / SMI / Tb.No / Tb.Pf (Trabecular pattern factor) / Tb.Sp: femur epiphysis
Experimental: The study was conducted in accordance with current legislation on animal experiments [Institutional Animal Ethical Committee (IAEC)] at C.D.R.I. […] Sprague Dawley rats weighing ˜180-200 gm were either bilaterally ovariectomized (OVx) or exposed to a sham surgical procedure. All rats were individually housed at 21° C., in 12-h light:12-h dark cycles. All rats had excess to normal chow diet and water ad libitum. After OVx, the rats were left for 12 weeks to develop osteopenia. After 12 weeks, extract treatment in the form of gavage (50.0 mg and 100 mg/kg body weight), and iPTH 30 μg·kg^−1 three times a week was given daily. Equal numbers of OVx and sham operated rats served as the control, and were given vehicle (20% ethanol). The rats were weighed each week. At the end of 12 weeks, urine was to be collected for biochemical assessment therefore the rats were caged individually in plastic cages fitted with steel mesh for a total period of 48 h preceding autopsy and had free access to normal chow diet and water for the first 24 h initially for of acclimatization and then during the next 24 h, animals received only water ad libitum. After twenty-four hours of fasting urine samples were collected in fresh containers, centrifuged at 2000 rpm at room temperature and stored at […] until analyzed. Rats were then euthanized. At autopsy, blood samples were collected by cardiac puncture in tubes. Uteri were carefully excised, gently blotted, weighed, and fixed for histology and histomorphometry. About 5 mm pieces from the middle segment of each uterus were dehydrated in ascending grades of ethanol, cleared in xylene, and embedded in paraffin wax using standard procedures. Photomicrographs of sections were obtained using a Leica DC 300 camera and Leica IM50 Image Acquisition software fitted to a Leica DMLB microscope. Histomorphometric measurements were done using Leica Qwin-Semiautomatic image Analysis software. μCT (both 2-D and 3-D) determination of excised bones was carried out using the Sky Scan 1076 μCT scanner (Aartselaar, Belgium) using the cone-beam reconstruction software version 2.6 based on the Feldkamp algorithm (Skyscan).
Trabecular response to FSE treatment of OVx rats was quantified at the femur epiphysis. […] Efficacy of OVx was confirmed by studying uterine weight. […] OVx group had reduced uterine weight as compared with the ovary intact, sham group. […] E2 increased uterine weight in OVx rats equal to the sham group.

[2] = Oral pharmacokinetics in male Sprague Dawley rats; assay type: in vivo; details: rat, serum, 250 mg/kg; for Vd/F: read-out: Vss/F
calvarial osteoblasts = assay: Mineralization (Alizarin Red-S) in calvarial osteoblasts; assay type: cell-based; details: various concentration, 18 days, compared to untreated cells
Experimental: FIG. 5A-5C: Activity of the compound C003/K008 isolated from the extract was assessed by measuring ALP activity in calvarial osteoblast cells. At the end of the experiment, ALP activity was measured colorimetrically. […] (*p<0.05, **p<0.01 and ***p<0.001 when compared with control). Calvarial osteoblasts were treated with compound C003/K008 at various concentration for 18 days to induce mineralization. […] Values are expressed as mean±SEM. ***p<0.001 and *p<0.05 when compared with control (untreated cells).
Compound (2492/K008) was isolated from butanolic fraction and alkaline phosphatase activity and mineralization in calvarial osteoblast cells assessed with different concentrations of the test compound or vehicle for 48 hrs in growth medium supplemented with 10 mM β-glycerophosphate and 50 μg/ml ascorbic acid. At the end of incubation period, cells were washed with PBS and kept in −80° C. for 30 min and then at 37° C. for 30 min. ALP activity was measured using p-nitrophenylphosphate (PNPP) as substrate and absorbance was read at 405 nm. SE increased the alkaline phosphatase activity from doses ranging from […] as compared to the control with ˜2.0 fold increase in the ALP activity at 1 μM.

[3] = tested on: drill-hole injury in femur of adult female Sprague Dawley rats; assay: Drill hole model for fracture healing (micro-CT, calcein labeling, qPCR); assay type: in vivo; details: 30 μg/kg s.c. injection
Experimental: Drill-hole injury was created in the mid femur region 1 cm above the knee joint by inserting a drill hole of diameter 0.8 mm in the anterior portion of the diaphysis of the bilateral femurs. Treatment was started next day of injury and continued for 14 days. Each animal received intraperitoneal administration of fluorochrome calcein(20 mg/kg) 24 h before autopsy. After 14 days of treatment, animals were sacrificed and autopsied to collect their femurs for the measurement of bone micro-architectural parameters. Bones were embedded inacrylic material and […] sections were made using an Isomet BoneCutter (Buehler, Lake Bluff, Ill., USA) and photographs taken under confocal microscope LSM 510 Meta, Carl Zeiss, Maple Grove, Minn., USA) aided with appropriate filters. The intensity of calcein binding, was calculated using Carl Zeiss AM 4.2 image-analysis software.
(A) In vivo regeneration of bone to monitor local repair process was done using micro-CT after creation of the hole using on femur of 0.8 mm diameter. […] Modest mineralized calluses appeared at defect and intra-medulla region of treated groups. By day 14, extent of callus mineralization increased, in the intra-medulla region.
The model was made as described above and then treatment of extract and Formulated Spinacea Extraxt (FSE) was started at doses of 250 and 750 mg·kg^−1·day^−1 from the next day of injury and continued for 14 days. After 14 days of treatment as described above, animals were sacrificed and autopsied to collect their femurs for the measurement of bonemicro architectural parameters at the drill-hole site. Bones were embedded inacrylic material and […] sections were made using an Isomet BoneCutter (Buehler, Lake Bluff, Ill., USA) and photographs taken under confocal microscope LSM 510 Meta, Carl Zeiss, Maple Grove, Minn., USA) aided with appropriate filters. The intensity of calcein binding, which is an indicator of the amount of new mineral deposition, was calculated using Carl Zeiss AM 4.2 image-analysis software. […]

With C[C@]12CC[C@@H]3c4ccc(O)cc4CC[C@H]3[C@@H]1CC[C@@H]2O [Compound E2] the Uteriewt ([1]; Ovx + E2 (0.1 mgkg^−1day^−1)) was 329.63 ± 30.44 mg, the BV/TV ([1]; Ovx + E2 (0.1 mgkg^−1day^−1)) was 15.97 ± 1.88 % and the “Po (tot) (Total porosity percent)” value ([1]; Ovx + E2 (0.1 mgkg^−1day^−1)) was 85.24 ± 2.07%. The SMI ([1]; Ovx + E2 (0.1 mgkg^−1day^−1)) was 1.67 ± 0.04, the Tb.No ([1]; Ovx + E2 (0.1 mgkg^−1day^−1)) was 1.61 ± 0.23** mm^−1 and the “Tb.Pf (Trabecular pattern factor)” value ([1]; Ovx + E2 (0.1 mgkg^−1day^−1)) was 6.22 ± 0.72. The Tb.Sp ([1]; Ovx + E2 (0.1 mgkg^−1day^−1)) was 0.76 ± 0.1 mm.
With COc1c(O)cc2oc(-c3ccc(O)c(O)c3)c(OC)c(=O)c2c1O [Compound K008, 5,7,3′,4′-tetrahydroxy-3,6-dimethoxy-flavone] the AUC(0-t) [2] was 23.3 ng·h/mL, the CL/F [2] was 23.3 mL/min/kg and the Cmax [2] was 5 ng/mL. For the same compound, the MRT [2] was 3.9 h, the Tmax [2] was 2 h and the Vd/F [2] was 5.6 L/kg. For the same compound, the “formation of mineralized nodules (Alizarin Red-S)” value (calvarial osteoblasts) was “increased formation of mineralized nodules”.
With “PTH: parathyroid hormone, standard marketed anabolic drug, injectable” the Uteriewt ([1]; Ovx + PTH (30 μg/kg bw)) was 91.18 ± 3.84 mg, the BV/TV ([1]; Ovx + PTH (30 μg/kg bw)) was 22.78 ± 1.76 % and the “Po (tot) (Total porosity percent)” value ([1]; Ovx + PTH (30 μg/kg bw)) was 76.79 ± 2.35 %. The SMI ([1]; Ovx + PTH (30 μg/kg bw)) was 1.26 ± 0.18, the Tb.No ([1]; Ovx + PTH (30 μg/kg bw)) was 2.43 ± 0.19*** mm^−1 and the “Tb.Pf (Trabecular pattern factor)” value ([1]; Ovx + PTH (30 μg/kg bw)) was 5.31 ± 0.68. For the same compound, the Tb.Sp ([1]; Ovx + PTH (30 μg/kg bw)) was 0.63 ± 0.07 mm, the BV/TV [3] was 60.3 ± 1.91 % and the Calcein intensity [3] was 15.3 ± .055 %. The “SMI (Index)” value [3] was 0.65 ± 0.07.
Work on COc1c(-c2ccc(O)c(O)c2)oc2cc3c(c(O)c2c1=O)OCO3 [Compound K007, 5,3′,4′-trihydroxy-3-methoxy-6,7-methylenedioxy-flavone] yielded an AUC(0-t) [2] of 39 ng·h/mL, a CL/F [2] of 213 mL/min/kg and a Cmax [2] of 7.6 ng/mL. It also gave an MRT [2] of 3.4 h, a Tmax [2] of 2 h and a Vd/F [2] of 43.3 L/kg.
